From US20240002376A1, “COMPOSITIONS AND METHODS FOR G-PROTEIN-COUPLED RECEPTOR 44 DETECTION” (City of Hope, priority 2020, published 2024)
“Also recorded” adds a separate entry of the source.

Tests used:
Type in all cases: in vivo
human islets = assay: Biodistribution in NOD/SCID mice with human islets transplanted into kidney capsule; details: 500 IEQ human islets in kidney capsule
Method: (§1) Preliminary studies confirmed that the human beta-like 1.1B4 cells express GPR44. However, it was not clear if the radiotracer would localize to these cells in living animals. We performed a biodistribution study in NOD/SCID mice post 3 weeks following implantation of 1.1B4 cells. The blocking agent was cold Ab-1. At 30 minutes post-injection, the mice with/without blocking agent were euthanized and organs were collected. […] For mice with transplanted study, 500 IEQ human islets were transplanted into NOD/SCID mice kidney capsule. We also performed the biodistribution study in the mice with human islets (FIG. 9). […] Ab-1. Further, [^18F]

[1] = Biodistribution of 18F GPR44 radioligand in healthy NOD/SCID mice
Method: Bio-distribution analysis over time of a unique ^18F GPR44 radioligand in healthy NOD/SCID mice. The biodistribution of [^18F] Ab-1 was investigated in health NOD/SCID mice. The mice were administered doses of the radiotracer i.v. through the tail vein under general anesthesia. At 30, 60, and 90 minutes post-injection, mice were euthanized. The blood, lung, heart, liver, spleen, stomach, small and large intestines, muscle, kidney, pancreas and bone were collected, weighed, and radioactivity counted. […] We also injected cold unlabeled Ab-1, as a blocking agent, and collected the organs at 30 minutes post-injection. Organ uptake varied little from results obtained in mice given the radiotracer.

GPR44+1.1B4 cells = assay: Biodistribution in NOD/SCID mice implanted with human beta-like 1.1B4 cells
Method: as §1

In the case of `CN(C1CCc2c(c3ccccc3n2CC(=O)O)C1)S(=O)(=O)c1ccc([18F])cc1` (centres unmarked) [[^18F] Ab-1], the “specific binding to human islets” value (human islets) is reported as “high specific binding”, the “uptake in human islets” value (human islets) is reported as “significant uptake; also recorded: accumulated” and the “specific binding in murine tissues” value ([1]; blocking with cold Ab-1) is reported as “no specific binding”. The “uptake in the murine pancreas” value ([1]; i.v. tail vein, 30, 60 and 90 minutes post-injection) was “minimal uptake”, the “uptake in the liver” value ([1]; i.v. tail vein, 30, 60 and 90 minutes post-injection, radioactivity counted) was “Prominent uptake” and the “uptake in the kidneys” value ([1]; i.v. tail vein, 30, 60 and 90 minutes post-injection, relative to liver) was “much less so”. For the same molecule, the “organ uptake with cold unlabeled Ab-1 as blocking agent versus radiotracer alone” value ([1]; organs collected 30 minutes post-injection) was “varied little”, the “effect of blocking agent cold Ab-1 on uptake in 1.1B4 cells” value (GPR44+1.1B4 cells; 30 minutes post-injection) was “decreased by cold Ab-1” and the “uptake in other organs before or after administration of cold Ab-1” value (GPR44+1.1B4 cells; 30 minutes post-injection) was “not different”. The “uptake in implanted 1.1B4 cells” value (GPR44+1.1B4 cells; 30 minutes post-injection, 3 weeks after implantation) was “highest uptake; also recorded: accumulated” and the “binding to GPR44+1.1B4 cells” value (GPR44+1.1B4 cells; in vivo, blocking with cold Ab-1) was “specifically binds”.
